Reference: US10760110B2, “Antibiotic testing and screening system” (priority 2017, dated 2020)
Values after ≈ are worked out from the molar mass of the structure shown. Read-outs that look alike come from different tables or passages of the source.

Tests used:
[1] = test system: A. baumannii KW1 strains with β-lactamase plasmids; experiment: Etest MIC of β-lactams, extended-spectrum β-lactamase, AmpC β-lactamase or carbapenemase (Table 18); assay type: cell-based, Acinetobacter baumannii
Experimental: (§1) DNA fragments of the resistance genes along with their flanking regions were amplified from clinical plasmids via PCR with specific primer pairs. The resulting PCR fragments were digested and then cloned into the plasmid pYMAb5 or pYMAb5Tc. The resulting plasmids were then transformed into A. baumannii KW1 via electroporation.
(§2) The MICs of antibiotics were determined using the Etest (Biodisk AB, Sweden) according to the manufacturer's instructions. The MICs from the Etest, which fall between standard two-fold dilutions, were rounded up to the next highest two-fold value. The MICs of ceftazidime and cefotaxime against K. pneumoniae NVT1001 harbouring the pACYC177 plasmid with blaOXA-48 were further determined using a broth microdilution test according to the recommendations of the CLSI,^25 and the results were interpreted according to the breakpoints established by the CLSI in 2017.^25 Meanwhile, due to the lack of CLSI breakpoints in 2016 and 2017, the results for cephalothin were interpreted according to the breakpoints established by the CLSI in 2015,^26 and the results for moxifloxacin were interpreted according to the breakpoints established by the EUCAST in 2017.^27

[2] = test system: A. baumannii KW1 strains with aminoglycoside resistance plasmids; experiment: Etest MIC of aminoglycosides, aminoglycoside-modifying enzyme or 16S rRNA methylase (Table 19); assay type: cell-based, Acinetobacter baumannii; settings: production of aminoglycoside-modifying enzymes
Experimental: as §1, §2

[3] = test system: K. pneumoniae NVT1001 and its ΔompK35/36 and/or ΔramR mutants; experiment: Etest MIC, OmpK35/36 loss and AcrAB-TolC overexpression (ΔramR) strains (Table 6); assay type: cell-based, Klebsiella pneumoniae; settings: Klebsiella pneumoniae
Experimental: as §2

| Structure (SMILES) | MIC ([1]; KW1, no supplemental plasmid) [µg/mL] | MIC ([1]; KW1 with ADC-30 on pYMAb5) [µg/mL] | MIC ([1]; KW1 with CTX-M-15 on pYMAb5) [µg/mL] | MIC ([1]; KW1 with IMP-1 on pYMAb5) [µg/mL] | MIC ([1]; KW1 with NDM-1 on pYMAb5) [µg/mL] | MIC ([1]; KW1 with OXA-23 on pYMAb5) [µg/mL] | MIC ([1]; KW1 with OXA-58 on pYMAb5) [µg/mL] | MIC ([1]; KW1 with OXA-66 on pYMAb5) [µg/mL] | MIC ([1]; KW1 with OXA-72 on pYMAb5) [µg/mL] | MIC ([1]; KW1 with VEB-3 on pYMAb5) [µg/mL] | MIC ([1]; KW1 with VIM-1 on pYMAb5) [µg/mL] | MIC ([1]; KW1 with shuttle vector pYMAb5) [µg/mL] | other results |
| --- | --- | --- | --- | --- | --- | --- | --- | --- | --- | --- | --- | --- | --- |
| CCN1CCN(C(=O)N[C@@H](C(=O)N[C@@H]2C(=O)N3[C@@H]2SC(C)(C)[C@@H]3C(=O)O)c2ccccc2)C(=O)C1=O [PP] | 12 | >256 | >256 | 16 | >256 | >256 | 128 | 64 | >256 | 12 | >256 | 12 |  |
| C[C@@H](O)[C@H]1C(=O)N2C(C(=O)O)=C(S[C@@H]3CN[C@H](C(=O)Nc4cccc(C(=O)O)c4)C3)[C@H](C)[C@H]12 [ETP] | 3 | >32 | 12 | >32 | >32 | >32 | >32 | >32 | >32 | 3 | >32 | 3 |  |
| CCN[C@@H]1C[C@H](N)[C@@H](O[C@H]2OC(CN)=CC[C@H]2N)[C@H](O)[C@H]1O[C@H]1OC[C@](C)(O)[C@H](NC)[C@H]1O [Netilmicin] |  |  |  |  |  |  |  |  |  |  |  |  | effects on the MIC [2]: no increase effects; MIC ([3]; WT, NVT1001, read-out: MIC): 0.5 µg/mL (≈ 1.05 µM); MIC ([3]; Δ35, ΔompK35 mutant): 0.5 µg/mL (≈ 1.05 µM); MIC ([3]; Δ35/36, ΔompK35/36 mutant): 0.5 µg/mL (≈ 1.05 µM); MIC ([3]; Δ36, ΔompK36 mutant): 0.5 µg/mL (≈ 1.05 µM); MIC ([3]; ΔramR mutant): 0.5 µg/mL (≈ 1.05 µM); MIC ([3]; ΔramRΔ35, ΔramRΔompK35 mutant): 0.25 µg/mL (≈ 0.526 µM); MIC ([3]; ΔramRΔ35/36, ΔramRΔompK35/36 mutant): 0.5 µg/mL (≈ 1.05 µM); MIC ([3]; ΔramRΔ36, ΔramRΔompK36 mutant): 0.5 µg/mL (≈ 1.05 µM) |
